Among the test systems are NCI-H460 lung; MDA-MB-435; COLO 205 colon; SK-MEL-2 melanoma; UACC-257 melanoma; NCI/ADR-RES ovarian; CAKI-1 renal; HL-60(TB) leukemia; HOP-62 NSCLC; HOP-92 NSCLC; EKVX NSCLC; OVCAR-3 ovarian; LOX IMVI melanoma; MALME-3M melanoma; OVCAR-4 ovarian.
What all share (test): NCI tumour cell line growth inhibition, 48 h

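Cultured in 96-well plates, cells were exposed to test compound for 48 hours across five concentrations. TGI is the concentration that stops growth completely.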

`Cc1c(N2C(=O)/C(=C/c3ccc(Cl)cc3)N=C2c2ccccc2)c(=O)n(-c2ccccc2)n1C`: the TGI with NCI-H460 lung is above 100 µM; with MDA-MB-435 it was 43.8 µM; with COLO 205 colon, 30.1 µM; in the assay with SK-MEL-2 melanoma, 39.9 µM; in the assay with UACC-257 melanoma, 42.8 µM; in the assay on NCI/ADR-RES ovarian, above 100 µM. For the same compound, the TGI in the assay on CAKI-1 renal is above 100 µM; with HL-60(TB) leukemia, 57 µM; with HOP-62 NSCLC, above 100 µM; in the assay on HOP-92 NSCLC, 66.6 µM; in the assay with EKVX NSCLC, 63.4 µM; in the assay on OVCAR-3 ovarian, above 100 µM. Besides, the TGI with LOX IMVI melanoma was 35.6 µM; with MALME-3M melanoma it was above 100 µM; in the assay with OVCAR-4 ovarian, above 100 µM.
Consider `CC(ON(C(c1ccccc1)C(C)C)C(C)(C)C)c1ccccc1` (stereo not given), for which the TGI is 39.1 µM with NCI-H460 lung; 68.9 µM in the assay on MDA-MB-435; 32.5 µM in the assay on COLO 205 colon; 34.4 µM with SK-MEL-2 melanoma; 47.1 µM with UACC-257 melanoma; 56.7 µM in the assay with NCI/ADR-RES ovarian. Besides, the TGI with CAKI-1 renal stood at 55.7 µM; in the assay on HL-60(TB) leukemia, 36.7 µM; with HOP-62 NSCLC, 38.9 µM; in the assay with HOP-92 NSCLC it was 40.3 µM; with EKVX NSCLC, 29 µM; in the assay with OVCAR-3 ovarian, 30 µM. The TGI in the assay on LOX IMVI melanoma was 35.3 µM; in the assay on MALME-3M melanoma, 71.6 µM; in the assay with OVCAR-4 ovarian, above 100 µM.
As to `COC(=O)/C=C1\C(=O)N(C(C)=O)c2ccc(Br)cc21`, the TGI in the assay with NCI-H460 lung came to 30.4 µM; with MDA-MB-435 it was 22 µM; with COLO 205 colon it was 27.8 µM; in the assay with SK-MEL-2 melanoma, 27.7 µM; in the assay on UACC-257 melanoma it was 22.8 µM; in the assay on NCI/ADR-RES ovarian it was 36.9 µM. Besides, the TGI with CAKI-1 renal is above 47 µM; with HL-60(TB) leukemia, 5.66 µM; in the assay with HOP-62 NSCLC, 25.9 µM; in the assay with HOP-92 NSCLC, 29.5 µM; in the assay on EKVX NSCLC, 32.1 µM; in the assay on OVCAR-3 ovarian it was 15.7 µM. Also, the results for the TGI in the assay on LOX IMVI melanoma, in the assay with MALME-3M melanoma and in the assay on OVCAR-4 ovarian were 20.3 µM, 35.3 µM and 25.9 µM, respectively.
For `c1ccc2c(Cc3[nH]c4ccccc4c3Cc3c[nH]c4ccccc34)c[nH]c2c1`, the TGI in the assay on NCI-H460 lung turned out to be 4.17 µM; in the assay with MDA-MB-435, 5.16 µM; in the assay with COLO 205 colon it was 3.99 µM; with SK-MEL-2 melanoma, 7.71 µM; in the assay with UACC-257 melanoma it was 8.47 µM; in the assay with NCI/ADR-RES ovarian it was 17.2 µM. In addition, the TGI is 10.3 µM with CAKI-1 renal; 4.58 µM in the assay with HL-60(TB) leukemia; 12.7 µM in the assay with HOP-62 NSCLC; 18.1 µM in the assay on HOP-92 NSCLC; 11.4 µM in the assay on EKVX NSCLC; 9.68 µM in the assay on OVCAR-3 ovarian. The TGI in the assay with LOX IMVI melanoma turned out to be 5.57 µM; with MALME-3M melanoma it was 6.3 µM; in the assay with OVCAR-4 ovarian it was 13.2 µM.
For `CC(C)C1C(=O)N(c2c(F)c(F)c(F)c(F)c2F)C(=S)N1CCS(=O)c1ccccc1` (stereo not given), the TGI in the assay on NCI-H460 lung amounted to 40.1 µM; in the assay on MDA-MB-435, 32.3 µM; in the assay with COLO 205 colon it was 29.9 µM; with SK-MEL-2 melanoma it was 32.8 µM; in the assay on UACC-257 melanoma, 35.5 µM; in the assay on NCI/ADR-RES ovarian, 40.8 µM. Besides, the TGI was found to be 9.86 µM in the assay on CAKI-1 renal; 19.2 µM with HL-60(TB) leukemia; 40.8 µM in the assay with HOP-62 NSCLC; 34.8 µM with HOP-92 NSCLC; 31.3 µM in the assay on EKVX NSCLC; 30.5 µM with OVCAR-3 ovarian. Also, the TGI in the assay on LOX IMVI melanoma worked out at 28.2 µM; in the assay with MALME-3M melanoma, 30.2 µM; in the assay with OVCAR-4 ovarian, 31.1 µM.
`COC(=O)/C(C#N)=C(\Nc1ccccc1)N1CCOCC1`: the TGI in the assay with NCI-H460 lung, with MDA-MB-435, with COLO 205 colon, in the assay on SK-MEL-2 melanoma, in the assay on UACC-257 melanoma and in the assay on NCI/ADR-RES ovarian was above 100 µM in each case. The TGI in the assay with CAKI-1 renal, with HL-60(TB) leukemia, in the assay on HOP-62 NSCLC, with HOP-92 NSCLC, with EKVX NSCLC and in the assay on OVCAR-3 ovarian was above 100 µM throughout. Further, the TGI in the assay with LOX IMVI melanoma, with MALME-3M melanoma and in the assay with OVCAR-4 ovarian was above 100 µM each time.
Take `CC(Nc1ncc2c(n1)-c1ccccc1OC2)C(=O)O` (stereo not given): the TGI with NCI-H460 lung, in the assay with MDA-MB-435, with COLO 205 colon, in the assay with SK-MEL-2 melanoma, with UACC-257 melanoma and with NCI/ADR-RES ovarian was above 100 µM each time. Also, the TGI was above 100 µM in the assay with CAKI-1 renal; 26.1 µM in the assay on HL-60(TB) leukemia; above 100 µM with HOP-62 NSCLC; above 100 µM in the assay with HOP-92 NSCLC; above 100 µM in the assay with EKVX NSCLC; above 100 µM in the assay with OVCAR-3 ovarian. The TGI with LOX IMVI melanoma, in the assay on MALME-3M melanoma and in the assay with OVCAR-4 ovarian was above 100 µM throughout.
Regarding `C=C=C(CC1CCCCC1=O)S(=O)(=O)c1ccccc1` (stereo not given), the TGI with NCI-H460 lung, in the assay with MDA-MB-435, with COLO 205 colon, in the assay on SK-MEL-2 melanoma, in the assay on UACC-257 melanoma and with NCI/ADR-RES ovarian was above 10 µM in each case. Besides, the TGI in the assay on CAKI-1 renal was above 10 µM; in the assay on HL-60(TB) leukemia, 2.5 µM; with HOP-62 NSCLC, above 10 µM; in the assay on HOP-92 NSCLC, above 10 µM; in the assay on EKVX NSCLC, above 10 µM; in the assay on OVCAR-3 ovarian, above 10 µM. The TGI in the assay on LOX IMVI melanoma, in the assay with MALME-3M melanoma and in the assay on OVCAR-4 ovarian was above 10 µM each time.
Regarding `NC1=CN(CCCO)C2=N/C(=C\c3ccccc3)C(=O)N12`, the TGI in the assay on NCI-H460 lung, in the assay with MDA-MB-435, in the assay with COLO 205 colon, in the assay on SK-MEL-2 melanoma, with UACC-257 melanoma and in the assay with NCI/ADR-RES ovarian was above 100 µM in each case. Besides, the TGI with CAKI-1 renal, in the assay on HL-60(TB) leukemia, in the assay on HOP-62 NSCLC, in the assay with HOP-92 NSCLC, in the assay with EKVX NSCLC and in the assay with OVCAR-3 ovarian was above 100 µM in each case. The TGI in the assay with LOX IMVI melanoma, in the assay on MALME-3M melanoma and in the assay on OVCAR-4 ovarian was above 100 µM throughout.

The record behind these values is PubChem BioAssay (NCI).
